Non-standard residues stand in square brackets, D forms with d. Residues, ends and D or L forms follow the SMILES beside them. *: point of attachment. 3Amb = NCc1cccc(C(=O)O)c1; 4Amb = NCc1ccc(C(=O)O)cc1; Cbz = O=C(OCc1ccccc1)*; NHOH = ON*
Experiments:
[1] = target: T1, Protein deacetylase HDAC6 (Homo sapiens, UniProt Q9UBN7); assay: Inhibition of human N-terminal GST-tagged HDAC6 expressed in baculovirus infected insect cells using RHKKAc as substrate
T1 sequence (Q9UBN7 whole entry): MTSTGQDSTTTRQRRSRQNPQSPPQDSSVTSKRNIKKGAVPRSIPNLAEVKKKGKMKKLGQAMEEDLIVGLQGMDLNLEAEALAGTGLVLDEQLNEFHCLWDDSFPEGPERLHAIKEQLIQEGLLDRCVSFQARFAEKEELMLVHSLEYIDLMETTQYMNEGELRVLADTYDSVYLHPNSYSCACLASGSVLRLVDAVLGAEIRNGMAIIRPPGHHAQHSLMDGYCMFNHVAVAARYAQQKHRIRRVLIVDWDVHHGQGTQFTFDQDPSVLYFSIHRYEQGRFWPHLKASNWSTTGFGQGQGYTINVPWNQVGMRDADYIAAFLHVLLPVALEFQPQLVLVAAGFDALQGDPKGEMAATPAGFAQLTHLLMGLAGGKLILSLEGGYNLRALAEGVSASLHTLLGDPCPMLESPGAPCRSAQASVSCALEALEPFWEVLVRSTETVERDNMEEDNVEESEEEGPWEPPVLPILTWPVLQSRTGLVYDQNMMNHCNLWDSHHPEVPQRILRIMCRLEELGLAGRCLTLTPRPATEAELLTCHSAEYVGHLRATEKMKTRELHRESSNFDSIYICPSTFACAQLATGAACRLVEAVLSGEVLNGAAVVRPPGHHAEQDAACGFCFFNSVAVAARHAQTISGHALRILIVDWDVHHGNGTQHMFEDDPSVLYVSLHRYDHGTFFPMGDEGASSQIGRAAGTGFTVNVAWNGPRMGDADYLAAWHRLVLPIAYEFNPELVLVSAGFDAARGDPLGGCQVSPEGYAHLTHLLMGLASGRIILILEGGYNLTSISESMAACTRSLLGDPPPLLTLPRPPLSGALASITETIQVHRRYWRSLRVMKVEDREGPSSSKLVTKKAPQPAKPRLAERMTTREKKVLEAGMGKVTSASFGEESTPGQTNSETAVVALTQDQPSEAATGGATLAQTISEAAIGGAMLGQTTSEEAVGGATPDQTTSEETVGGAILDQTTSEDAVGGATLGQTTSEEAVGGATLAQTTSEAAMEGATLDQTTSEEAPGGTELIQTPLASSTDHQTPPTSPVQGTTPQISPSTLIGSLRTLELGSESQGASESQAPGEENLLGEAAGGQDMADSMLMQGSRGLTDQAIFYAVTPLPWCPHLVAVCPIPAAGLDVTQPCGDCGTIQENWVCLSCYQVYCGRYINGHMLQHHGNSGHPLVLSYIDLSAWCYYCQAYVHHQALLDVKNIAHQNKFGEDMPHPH

[2] = target: T1, Protein deacetylase HDAC6; assay: Inhibition of HDAC6 CD2 domain (unknown origin)
[3] = target: T1, Protein deacetylase HDAC6; assay: Inhibition of recombinant C-terminal FLAG-tagged HDAC6 (unknown origin) using Ac-NH-GGK(Ac)-AMC as substrate measured after 180 mins by fluorescence assay

Structure (SMILES) | IC50 [1] [µM] | IC50 [2] [µM] | further results
CC1(C)[C@@H]2CC[C@@H](CNCc3ccc(C(=O)NO)cc3)[C@H]1C2 | – | 0.149 | –
CN(C)Cc1ccc(S(=O)(=O)n2ccc(/C=C/C(=O)NO)c2)cc1 [RESMINOSTAT] | – | – | IC50 [3]: 0.072 µM

The next lines start with results.

IC50 [1] [µM] | IC50 [2] [µM] | Structure (SMILES) | further results
0.017 | – | O=C(NO)c1ccc(CNC(=O)c2cccnc2C(F)(F)F)cc1 | –
– | 0.335 | O=C(CNC(=O)CNC(=O)OCc1ccccc1)NCc1ccc(C(=O)NO)cc1 (Cbz-Gly-Gly-[4Amb]-{NHOH}) | –
– | 8.42 | CC(C)C[C@H](NC(=O)OCc1ccccc1)C(=O)N[C@@H](C)C(=O)NCc1cccc(C(=O)NO)c1 (Cbz-Leu-Ala-[3Amb]-{NHOH}) | –
0.314 | – | CC(C)C[C@H](NC(=O)OCc1ccccc1)C(=O)N[C@@H](C)C(=O)NCc1ccc(C(=O)NO)cc1 (Cbz-Leu-Ala-[4Amb]-{NHOH}) | –

— ChEMBL document CHEMBL4321863, “Exploring Structural Determinants of Inhibitor Affinity and Selectivity in Complexes with Histone Deacetylase 6” (J Med Chem, 2020)
